Experimental data published in ChEMBL document CHEMBL4418299, “Compounds useful as csf1 modulators” (2016).

The compounds below were run against Macrophage colony-stimulating factor 1 receptor (Homo sapiens, UniProt P07333) (assay: Displacement of kinase tracer 236 from recombinant human His-tagged CSF1R cytoplasmic domain (538 to 910 residues) expressed in baculovirus-infected insect cells measured after 5 hrs by TR-FRET based LanthaScreen assay).
Chain of Macrophage colony-stimulating factor 1 receptor (P07333 whole entry, the tested form may be a part): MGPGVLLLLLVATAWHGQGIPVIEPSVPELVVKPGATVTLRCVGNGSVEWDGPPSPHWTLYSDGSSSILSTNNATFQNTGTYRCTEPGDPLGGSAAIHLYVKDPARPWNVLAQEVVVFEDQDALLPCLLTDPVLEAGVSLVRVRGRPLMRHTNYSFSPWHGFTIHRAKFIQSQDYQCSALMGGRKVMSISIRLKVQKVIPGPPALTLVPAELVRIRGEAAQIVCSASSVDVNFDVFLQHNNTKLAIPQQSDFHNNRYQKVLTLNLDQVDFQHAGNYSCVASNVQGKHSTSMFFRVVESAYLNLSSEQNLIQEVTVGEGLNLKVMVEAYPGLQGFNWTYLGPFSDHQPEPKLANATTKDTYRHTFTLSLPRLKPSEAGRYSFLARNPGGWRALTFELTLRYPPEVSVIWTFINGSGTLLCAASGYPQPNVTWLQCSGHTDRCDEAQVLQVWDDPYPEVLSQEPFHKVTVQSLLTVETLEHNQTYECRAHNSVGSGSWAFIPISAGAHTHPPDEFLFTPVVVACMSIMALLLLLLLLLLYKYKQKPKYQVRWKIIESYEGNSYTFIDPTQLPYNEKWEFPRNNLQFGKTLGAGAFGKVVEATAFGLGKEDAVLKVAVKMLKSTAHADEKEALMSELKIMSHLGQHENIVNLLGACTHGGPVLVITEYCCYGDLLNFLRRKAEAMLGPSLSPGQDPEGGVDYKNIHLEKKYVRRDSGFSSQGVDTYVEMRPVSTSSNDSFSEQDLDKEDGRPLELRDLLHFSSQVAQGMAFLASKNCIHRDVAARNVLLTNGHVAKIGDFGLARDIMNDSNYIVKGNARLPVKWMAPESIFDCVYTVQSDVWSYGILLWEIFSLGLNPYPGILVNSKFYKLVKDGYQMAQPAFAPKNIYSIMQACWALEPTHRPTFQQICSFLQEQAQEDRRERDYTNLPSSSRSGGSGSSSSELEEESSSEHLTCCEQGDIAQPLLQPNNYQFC

Row | Structure (SMILES) | IC50 [nM]
1 | CC(C)(C)c1ccn(CC(=O)Nc2ccc(-n3c4c(c5ncnc(N)c53)COC4)cc2)n1 | 10 to 200
2 | COc1cc(-n2c3c(c4ncnc(N)c42)CCC3)ccc1NC(=O)Cc1ccccn1 | < 10
3 | COc1ccc(CC(=O)Nc2ccc(-n3c4c(c5ncnc(N)c53)COC4)cc2F)c(F)c1 | > 200
4 | COc1cc(-n2c3c(c4ncnc(N)c42)CCC3)ccc1NC(=O)Cc1ccc(C(C)(C)C)cc1 | 10 to 200
5 | COc1cc(-n2c3c(c4ncnc(N)c42)CCC3)ccc1NC(=O)Cc1cc(C(F)F)on1 | < 10
6 | COc1cc(-n2c3c(c4ncnc(N)c42)CCC3)ccc1NC(=O)Cc1nccc(C(F)(F)F)n1 | 10 to 200
7 | COc1ccc(CC(=O)Nc2ccc(-n3c4c(c5ncnc(N)c53)COC4)cc2)cc1F | 14
8 | COc1cc(NC(=O)Cc2ccc(-n3c4c(c5ncnc(N)c53)CCC4)cc2OC)cc(C(F)(F)F)c1 | < 10
9 | COc1cc(-n2c3c(c4ncnc(N)c42)COC3)ccc1NC(=O)Cn1ccc(C(C)C)n1 | < 10
10 | COc1cc(-n2c3c(c4ncnc(N)c42)COC3)ccc1NC(=O)Cc1cccc(OC)c1C | < 10
11 | COc1cc(-n2c3c(c4ncnc(N)c42)CCC3)ccc1NC(=O)Cc1cnn(C)c1C(F)(F)F | < 10
12 | COc1cc(-n2c3c(c4ncnc(N)c42)COC3)ccc1NC(=O)Cc1ccc(C)cc1F | < 10
13 | Cc1ccc(F)c(CC(=O)Nc2ccc(-n3c4c(c5ncnc(N)c53)COC4)cc2F)c1 | > 200
14 | CNC(=O)c1ccc(CC(=O)Nc2ccc(-n3c4c(c5ncnc(N)c53)CCC4)cc2OC)cc1 | > 200
15 | COc1cc(-n2c3c(c4ncnc(N)c42)CCC3)ccc1NC(=O)Cc1ccn(C(F)F)n1 | < 10
16 | COc1cc(-n2c3c(c4ncnc(N)c42)CCC3)ccc1NC(=O)CN1CCOc2ccccc21 | 10 to 200
17 | Nc1ncnc2c3c(n(-c4ccc(NC(=O)[C@@H](N)Cc5ccccc5)cc4)c12)CCC3 | > 200
18 | Nc1ncnc2c3c(n(-c4ccc(CC(=O)NC5CCCCC5)cc4)c12)CCC3 | 10 to 200
19 | COc1cc(-n2c3c(c4ncnc(N)c42)CCC3)ccc1CC(=O)Nc1ccc(C(F)(F)F)cn1 | < 10
20 | Nc1ncnc2c3c(n(-c4ccc(NC(=O)Cc5ccccc5)c(F)c4)c12)CCC3 | > 200
21 | COc1ccc(CC(=O)Nc2ccc(-n3c4c(c5ncnc(N)c53)CCC4)cc2OC)nc1 | 10 to 200
22 | COc1cc(-n2c3c(c4ncnc(N)c42)CCC3)ccc1NC(=O)Cc1nnccc1C(F)(F)F | > 200
23 | COc1cc(-n2c3c(c4ncnc(N)c42)CCC3)ccc1CC(=O)Nc1cnn(C)c1 | > 200

Row | Structure (SMILES) | IC50 [nM]
24 | COc1ccc(CC(=O)Nc2ccc(-n3c4c(c5ncnc(N)c53)COC4)cc2)c(F)c1 | 10 to 200
25 | Nc1ncnc2c3c(n(-c4ccc(NC(=O)Cn5cnc(C(F)(F)F)c5)cc4)c12)COC3 | < 10
26 | Cc1ccc(CC(=O)Nc2ccc(-n3c4c(c5ncnc(N)c53)COC4)cc2)cc1F | 10 to 200
27 | Nc1ncnc2c3c(n(-c4ccc(NC(=O)Cn5ccc(C6CC6)n5)cc4)c12)CCC3 | < 10
28 | COc1ccc(CC(=O)Nc2ccc(-n3c4c(c5ncnc(N)c53)COC4)cc2OC)cn1 | 10 to 200
29 | COc1cc(-n2c3c(c4ncnc(N)c42)COC3)ccc1NC(=O)Cc1ccc(C(F)(F)F)nn1 | 10 to 200
30 | COc1ccc(NC(=O)Cc2ccc(-n3c4c(c5ncnc(N)c53)CCC4)cc2OC)nn1 | < 10
31 | Cn1ccc(CC(=O)Nc2ccc(-n3c4c(c5ncnc(N)c53)CCC4)cc2)n1 | > 200
32 | COc1cc(-n2c3c(c4ncnc(N)c42)CCC3)ccc1NC(=O)Cc1ccc(C)c(F)c1 | < 10
33 | Cn1cc(C(=O)Nc2ccc(-n3c4c(c5ncnc(N)c53)CCC4)cc2)c2ccccc21 | 10 to 200
34 | COc1cc(-n2c3c(c4ncnc(N)c42)CCC3)ccc1NC(=O)Cc1cnn(C(F)F)c1 | < 10
35 | COc1cc(CC(=O)Nc2ccc(-n3c4c(c5ncnc(N)c53)COC4)cc2OC)cc(OC)c1 | 10 to 200
36 | COc1cc(-n2c3c(c4ncnc(N)c42)CCC3)ccc1NC(=O)Cn1nc(C)cc1C(F)(F)F | 10 to 200
37 | COc1cc(-n2c3c(c4ncnc(N)c42)CCC3)ccc1NC(=O)Cc1coc(C(C)C)n1 | < 10
38 | COc1cc(-n2c3c(c4ncnc(N)c42)CCC3)ccc1NC(=O)Cc1ncc(C)cc1F | 10 to 200
39 | Nc1ncnc2c3c(n(-c4ccc(NC(=O)CN5CCCC5)cc4)c12)CCC3 | > 200
40 | COc1cc(-n2c3c(c4ncnc(N)c42)CCC3)ccc1CC(=O)Nc1ccn(C)n1 | > 200
41 | Nc1ncnc2c3c(n(-c4ccc(NC(=O)Cn5cnc(C(F)(F)F)c5)cc4)c12)CCC3 | < 10
42 | Nc1ncnc2c3c(n(-c4ccc(NC(=O)Cc5ccncc5)cc4)c12)CCC3 | > 200
43 | COc1cc(-n2c3c(c4ncnc(N)c42)CCC3)ccc1NC(=O)Cn1ccc(C2CC2)n1 | < 10
44 | COc1cc(-n2c3c(c4ncnc(N)c42)CCC3)ccc1CC(=O)Nc1cc(C(F)(F)F)cnn1 | < 10
45 | COc1cc(-n2c3c(c4ncnc(N)c42)CCC3)ccc1NC(=O)Cc1ccc(C)cc1F | < 10
46 | COc1cc(-n2c3c(c4ncnc(N)c42)CCC3)ccc1NC(=O)Cc1cc(C)no1 | 10 to 200

Row | Structure (SMILES) | IC50 [nM]
47 | Cc1cnc(CC(=O)Nc2ccc(-n3c4c(c5ncnc(N)c53)CCC4)cc2)c(F)c1 | 10 to 200
48 | CN(C)c1cc(CC(=O)Nc2ccc(-n3c4c(c5ncnc(N)c53)CCC4)cc2)ccc1C(F)(F)F | 10 to 200
49 | COc1cc(-n2c3c(c4ncnc(N)c42)COC3)ccc1NC(=O)Cc1cnn(C)c1C(F)(F)F | > 200
50 | Nc1ncnc2c3c(n(-c4ccc(NC(=O)Cc5ccc(C(F)(F)F)nc5)cc4)c12)COC3 | 10 to 200
51 | COc1cc(-n2c3c(c4ncnc(N)c42)CCC3)ccc1NC(=O)CN1C(=O)COc2ccccc21 | 10 to 200
52 | COc1cc(-n2c3c(c4ncnc(N)c42)CCC3)ccc1CC(=O)Nc1ccc(C(F)(F)F)nc1 | < 10
53 | COc1cc(-n2c3c(c4ncnc(N)c42)CCC3)ccc1CC(=O)Nc1ccc(C(C)(C)O)cn1 | 10 to 200
54 | Nc1ncnc2c3c(n(-c4ccc(NC(=O)C(F)c5ccccc5)cc4)c12)CCC3 (configuration not stated) | > 200
55 | COc1cc(-n2c3c(c4ncnc(N)c42)CCC3)ccc1NC(=O)Cc1ccnc(C(F)(F)F)c1 | < 10
56 | COc1cc(-n2c3c(c4ncnc(N)c42)CCC3)ccc1NC(=O)Cc1cc(C(F)(F)F)nn1C | 10 to 200
57 | COc1cc(-n2c3c(c4ncnc(N)c42)CCC3)ccc1NC(=O)Cc1cc(C(F)(F)F)cnn1 | 10 to 200
58 | COc1ccc(CC(=O)Nc2ccc(-n3c4c(c5ncnc(N)c53)CCC4)cc2OC)cn1 | 10 to 200
59 | COc1cc(-n2c3c(c4ncnc(N)c42)COC3)ccc1NC(=O)CN1CCOc2ccccc21 | > 200
60 | COc1cc(-n2c3c(c4ncnc(N)c42)CCC3)ccc1NC(=O)Cc1ccc2c(ccn2C)c1 | < 10
61 | COc1ccc(NC(=O)Cc2ccc(-n3c4c(c5ncnc(N)c53)CCC4)cc2OC)c(F)c1 | < 10
62 | COc1cc(-n2c3c(c4ncnc(N)c42)CCC3)ccc1CC(=O)Nc1ccc(C(C)(C)O)nc1 | < 10
63 | Cn1cc(CC(=O)Nc2ccc(-n3c4c(c5ncnc(N)c53)CCC4)cc2)cn1 | 10 to 200
64 | Nc1ncnc2c3c(n(-c4ccc(NC(=O)Cc5ccc(Cl)nn5)cc4)c12)COC3 | > 200
65 | Nc1ncnc2c3c(n(-c4ccc(NC(=O)Cc5ccccc5)c(C(F)(F)F)c4)c12)CCC3 | > 200
66 | COc1cc(-n2c3c(c4ncnc(N)c42)CCC3)ccc1CC(=O)Nc1ccccc1 | 10 to 200
67 | COc1cc(-n2c3c(c4ncnc(N)c42)CCC3)ccc1CC(=O)Nc1cnc(C(F)(F)F)nc1 | 10 to 200
68 | COc1cc(-n2c3c(c4ncnc(N)c42)CCC3)ccc1NC(=O)Cc1cnn(C)c1 | 10 to 200
69 | COc1cccc(CC(=O)Nc2ccc(-n3c4c(c5ncnc(N)c53)CCC4)cc2OC)n1 | 10 to 200

Row | Structure (SMILES) | IC50 [nM]
70 | COc1ccc(CC(=O)Nc2ccc(-n3c4c(c5ncnc(N)c53)CCC4)cc2OC)cc1C | < 10
71 | COc1cc(-n2c3c(c4ncnc(N)c42)CCC3)ccc1NC(=O)Cc1ccc(C2(O)COC2)cc1 | < 10
72 | COc1cc(-n2c3c(c4ncnc(N)c42)COC3)ccc1NC(=O)Cc1ccnc(C(F)(F)F)n1 | > 200
73 | Nc1ncnc2c3c(n(-c4ccc(CC(=O)Nc5cccnc5)cc4)c12)CCC3 | > 200
74 | CC(C)(C)c1cnn(CC(=O)Nc2ccc(-n3c4c(c5ncnc(N)c53)CCC4)cc2)c1 | < 10
75 | COc1cc(-n2c3c(c4ncnc(N)c42)CCC3)ccc1CC(=O)Nc1cnc(OC)c(F)c1 | < 10
76 | COc1cc(-n2c3c(c4ncnc(N)c42)CCC3)ccc1NC(=O)Cn1cnc(C(F)(F)F)c1 | 10 to 200
77 | COc1cc(-n2c3c(c4ncnc(N)c42)COC3)ccc1NC(=O)Cc1ccccc1 | < 10
78 | COc1cc(-n2c3c(c4ncnc(N)c42)CCC3)ccc1NC(=O)Cc1ccc(Cl)c(C(F)(F)F)c1 | 10 to 200
79 | COc1cc(-n2c3c(c4ncnc(N)c42)CCC3)ccc1NC(=O)Cc1ccccc1 | 10 to 200
80 | COc1cc(-n2c3c(c4ncnc(N)c42)CCC3)ccc1NC(=O)Cn1ccc(C(C)(C)C)n1 | < 10
81 | CC(C)c1noc(CC(=O)Nc2ccc(-n3c4c(c5ncnc(N)c53)CCC4)cc2)n1 | 10 to 200
82 | COc1cc(-n2c3c(c4ncnc(N)c42)CCC3)ccc1CC(=O)Nc1ccnn1C | > 200
83 | COc1cc(-n2c3c(c4ncnc(N)c42)COC3)ccc1NC(=O)Cn1ccc(C(F)(F)F)n1 | 10 to 200
84 | Nc1ncnc2c3c(n(-c4ccc(NC(=O)Cc5ccnc(C(F)(F)F)c5)cc4)c12)COC3 | 10 to 200
85 | COc1cc(-n2c3c(c4ncnc(N)c42)COC3)ccc1CC(=O)Nc1ccc(C(F)(F)F)nc1 | < 10
86 | Nc1ncnc2c3c(n(-c4ccc(NC(=O)CCCN5CCOCC5)cc4)c12)CCC3 | 10 to 200
87 | Cn1ncc(CC(=O)Nc2ccc(-n3c4c(c5ncnc(N)c53)CCC4)cc2)c1C(F)(F)F | < 10
88 | COc1cc(-n2c3c(c4ncnc(N)c42)CCC3)ccc1NC(=O)CN1CCCc2cc(F)ccc21 | 10 to 200
89 | COc1cc(-n2c3c(c4ncnc(N)c42)CCC3)ccc1NC(=O)Cc1ccnc(C(F)(F)F)n1 | 10 to 200
90 | Nc1ncnc2c3c(n(-c4ccc(NC(=O)Cc5ccccc5)c(OC(F)(F)F)c4)c12)CCC3 | > 200
91 | COc1cc(-n2c3c(c4ncnc(N)c42)COC3)ccc1NC(=O)Cn1ncc2ccccc21 | 10 to 200
92 | COc1cc(-n2c3c(c4ncnc(N)c42)CCC3)ccc1NC(=O)Cc1cc(C(F)(F)F)ccc1F | 10 to 200
